Literature values as cited in US20100151107A1, “EXTRACTION METHOD FOR THE CLASSIFIED EXTRACTION AND SEPARATION OF VEGETABLE COMPONENT MATERIALS, AND THE APPLICATION THEREOF” (priority 2006, published 2010).

Key:
[1] = test system: isolated mouse mammary gland cells; conditions: MMOC-test; versus resveratrol isolated from red vine
[2] = test system: 60 different human tumour-cell lines; conditions: 60 different human tumour-cell lines (leukaemia, lung cancer, large intestine, melanoma, breast cancer)
[3] = in-vitro; against osteoporosis, arteriosclerosis, diseases of the coronary vessels, heart attack and stroke
[4] = rats; dose 1.000 mg xanthohumol per kg body weight
healthy cells = conditions: all hitherto described in-vitro experiments

## COc1cc(O)c(CC=C(C)C)c(O)c1C(=O)/C=C/c1ccc(O)cc1 [Xanthohumol, xanthohumol]
[1]
  effectiveness relative to resveratrol: more than 200 fold
[2]
  growth inhibiting and cytotoxic effect: growth inhibiting and cytotoxic effect
[3]
  preventive effect: preventive effect
[4]
  toxic effect: no toxic effect
Healthy cells
  cytotoxic effect against healthy cells: no cytotoxic effect
